# Experimental data published in patent publication US5648373A, “CoA-IT and PAF inhibitors” (SmithKline Beecham Corporation, priority 1992, dated 1997).
# “Also recorded” adds a separate entry of the source.
# Experiments:
# human neutrophils [1] = test: Arachidonic acid release assay (assay b), A23187-challenged neutrophils; type: cell-based
# Method: Human neutrophils were obtained in the laboratory using three different methods. One method used leukophoresis packs from normal humans and neutrophils were isolated using the histopaque-1077 technique. The blood was centrifuged at 300× g for 10 minutes. The cell pellets were resuspended in PBS composed of 137 mM NaCI, 8.8 mM Na2HPO4, 1.5 mM KH2PO4, 2.7 mM KCI (Dulbecco's Gibco Laboratories, Long Island, N.Y.) and layered over histopaque-1077 (Sigma, St. Louis, Mo.). The pellets were collected after centrifugation (300× g for 30 minutes) and washed once in PBS. The cell pellets were exposed briefly to dionized water to Iyse any erythrocytes. The remaining cells were collected by centrifugation, suspended in PBS, counted and identified after cytospinning and staining. The final leukocyte preparation was of greater than 95% purity and viability.
# The second method isolated human neutrophils from fresh heparinized normal blood using the Histopaque-1077 technique. […] The remaining cells were collected by centrifugation, suspended in PBS, counted and identified after cytospinning and staining. […]
# The third method isolated human neutrophils from freshly drawn heparinized normal blood using the Percoll technique. […] The neutrophils were suspended in PBS, counted and identified after cytospinning and staining. […]
# human neutrophils [2] = test: Assay for production of platelet-activating factor (assay c), A23187-challenged neutrophils; type: cell-based
# Method: Blood was obtained from normal humans and neutrophils were isolated as described for the arachidonic acid release assay, above. The final leukocyte preparation was of greater than 95% purity and viability.
# Neutrophils were suspended in PBS at concentrations of 5 to 20×10^6 cells per ml. Cells were added to test tubes and treated with the desired compounds for 5 to 10 minutes, then challenged with calcium ionophore A23187, 2 μM and 20-30 μCi of [^3 H]acetic acid (NEN-Dupont, Boston, Mass.), or the vehicle of PBS with 0.25-1 mg/ml […]. After 5 to 20 minutes, the reactions were terminated by addition of an equal volume of chloroform:methanol (1:2, v/v) to the samples and the lipids were extracted by addition of equal volumes of chloroform and distilled water. The samples were vortexed and centrifuged at high speed and the chloroform layer removed to a clean tube.
# The chloroform from each tube was evaporated to dryness and the material suspended in a small volume of chloroform or chloroform:methanol (25-100 μl) and the total material spotted on a Silica TLC plate. The plates were developed in chloroform/methanol/acetic acid/water (50:25:8:4, v/v) visualized by radioscanning (Bioscan) and the product, [^3 H]PAF, was scraped and quantified by liquid scintillation spectroscopy. With this TLC system, the Rf value for a synthetic standard of PAF was approximately 0.33.
# [3] = tested on: TPA-induced inflammation in the mouse ear; test: TPA-induced inflammation of the mouse ear (assay d): ear thickness, myeloperoxidase; type: in vivo; settings: topical TPA
# Method: The ability of compounds that inhibit CoA-IT to affect in vivo inflammatory responses was assessed. Inflammatory responses were induced in the mouse ear by the topical application of a pro-inflammatory agent, such as 12-0-tetradecanoylphorbol 13-acetate. This produced an edematous response, as measured by increases in ear thickness, as well as increased inflammatory cellular infiltrate, as measured by increases in myeloperoxidase activity as described in the methods.
# Male Balb/c inbred mice were obtained from Charle River Breeding Laboratories (Kingston, N.Y.). Within a single experiment mice (22-25 g) were age-matched. These in vivo experiments typically involved use of 5-6 animals/group.
# TPA (12-0-tetradecanoylphorbol 13-acetate) (Sigma Chemical Company) in acetone (4 μg/20 μl) was applied to the inner and outer surfaces of the left ear of BALB/c male mice. The thickness of both ears was then measured with a dial micrometer (Mitutoyo, Japan) at both 2 and 4 hours after treatment, and the data expressed as the change in thickness (10-^3 cm) between treated and untreated ears. […] After measuring the edema, the inflammed left ears were removed and stored at -70° C. until they were assayed for MPO (myeloperoxidase) activity where appropriate. […]
# [4] = tested on: mouse bone marrow-derived mast cells; test: Arachidonate content of cellular phospholipids of mast cells (method e); type: cell-based
# Method: As treatment of intact cells blocks the movement of arachidonate into specific cellular phospholipids, it followed that prolonged treatment of inflammatory cells with CoA-IT inhibitors could deplete their large endogenous pools of arachidonate within phospholipids. To determine that CoA-IT inhibition can alter the amount of arachidonate within cellular phospholipids, mouse bone marrow-derived mast cells were treated with Compound 3 for 24 hours and the mass of arachidonate within total cellular phospholipids was determined. Compound 3 induced a concentration-dependentreduction in the total cellular arachidonate within mast cells, with greater than 75% reduction apparent at 20 μM. […]
# The following is the method for assessing the ability of a compound to alter arachidonate content of cellular phospholipids, which can be generalized for any desired cell. […] The radioactive and mole quantities of arachidonate in complex lipids are determined. At this point, cellular lipid extracts are treated with KOH (0.5M) to remove fatty acids from complex lipids (phospholipids) and the quantities of arachidonate in these extracts can then be determined by various methods, including gas chromatography and mass spectrometry (Chilton [Methods Enzymol. (1990) 187, 157-166]).
# intact human neutrophils = test: Movement of [3H]arachidonate into 1-ether-linked phospholipids in intact non-stimulated neutrophils (method e); type: cell-based; settings: various concentrations, 2 hours, no cellular stimulation
# Method: CoA-IT activity can also be measured in intact cells by following the movement of a pulse of [^3 H]arachidonate as it moves into the "pool 2" phospholipids (1-alkyl and 1-alkenyl phospholipids) in inflammatory cells. These specific studies were performed in intact human neutrophils, which contain CoA-IT activity and transfer arachidonate into 1-alkyl and 1-alkenyl phospholipids. To determine the effects of Compound 3 on this transfer of arachidonate, neutrophils were exposed briefly to [^3 H]arachidonic acid to allow incorporation of the label into 1-acyl phospholipids, treated with various concentrations of Compound 3 and the movement of [^3 H]arachidonate between phospholipid subclasses assessed over the subsequent 2 hours in the absence of cellular stimulation.
# Measurement of the effect of CoA-IT inhibitors on the transfer of [^3 H]arachidonate into 1-ether phospholipids in non-stimulated inflammatory cells can be accomplished by general application of the following specific method. Human neutrophils were isolated and resuspended (5×10^7 /ml) in Hanks Balanced Salt Solution (HBSS; Gibco). […] The phospholipid subclasses were separated by TLC in benzene/hexane/ethyl ether (50:45:4, v/v), located by image analysis (Bioscan) and the amount of radioactivity in each class was determined by zonal scraping and liquid scintillation counting.
compound,measurement,setting,value
"CCOP(=O)(CCCCCCCn1c(-c2ccccc2)c(-c2ccccc2)n(-c2ccccc2)c1=O)OCC [Compound 3, Diethyl 7-(3-4-5-triphenyl-2-oxo-2-3-dihydroimidazol-1-yl)heptane phosphonate]",inhibition of free arachidonic acid release,human neutrophils [1],completely and in a concentration dependent fashion; also recorded: inhibition
same,inhibition of PAF production,human neutrophils [2],completely and in a concentration dependent fashion; also recorded: inhibition
same,anti-inflammatory effect in vivo (TPA-induced mouse ear inflammation),[3]; listed as Example 3,positive inhibition; also recorded: anti-inflammatory responses
same,anti-inflammatory effect in vivo (TPA-induced mouse ear inflammation),[3]; listed as compound 3,anti-inflammatory effect
same,loss of arachidonate from all major phospholipid classes of the mast cell,"[4]; 24 hours, various concentrations",concentration-dependent loss
same,"loss in the mass of 18:0, 18:1, 18:2 from PI, PE and PC",[4]; mast cells,no loss
same,"movement of [3H]arachidonate into 1-ether-linked phospholipids, 1-alkyl PC and 1-alkenyl PE",intact human neutrophils,concentration-dependent blockade; also recorded: completely block
same,"movement of [3H]arachidonate into 1-ether-linked phospholipids, 1-alkyl PC and 1-alkenyl PE",intact human neutrophils; listed as Example 3,concentration-dependent blockade
